How the values were obtained:
southern crabgrass [1] = test: Test Example 5: herbicidal effect by foliage application, plastic box (Table 20, symbol F); type: in vivo, southern crabgrass (Digitaria ciliaris); settings: foliage application
In short: (§1)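 Post-emergence foliar test in sterilized diluvial soil. Compound applied as water-diluted emulsion at a predetermined rate to 14-day-old plants; evaluation at three weeks.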

oval-leafed pondweed = test: Test Example 1: herbicidal activity, application before weed generation under submerged conditions (Table 16, symbol C); type: in vivo, oval-leafed pondweed (Monochoria vaginalis); settings: 320 g/ha applied herbicide
In short: (§2)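 Alluvial soil was flooded to 4 cm depth, weed seeds were sown mixed and 2.5-leaf rice seedlings were transplanted. On sowing day, the compound's emulsion, diluted in water to a set dose, was applied to the water surface. Plants grew at 25–30 °C and were scored 0–5 after three weeks.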

barnyard grass [2] = test: Test Example 3: herbicidal effect by foliage application, Wagner pot (Table 18, symbol H); type: in vivo, barnyard grass (Echinochloa crus-galli)
In short: (§3)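 Plants were sown in alluvial soil held under 0.1–0.5 cm standing water and grown 14 days in a greenhouse at 25–30 °C. An emulsifiable formulation, water-diluted to the set dose, was then sprayed onto the foliage, and effects were scored three weeks later using previously defined criteria.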

wild oat [3] = test: Test Example 5: herbicidal effect by foliage application, plastic box (Table 20, symbol I); type: in vivo, wild oat (Avena fatua); settings: foliage application
In short: as §1

Chinese sprangletop = test: Test Example 3: herbicidal effect by foliage application, Wagner pot (Table 18, symbol D); type: in vivo, chinese sprangletop (Leptochloa chinensis)
In short: as §3

Italian ryegrass [4] = test: Test Example 4: herbicidal effect by soil treatment (Table 19, symbol K); type: in vivo, Italian ryegrass (Lolium multiflorum)
In short: (§4)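 Emulsion of test compound, water-diluted to predetermined amount, sprayed on soil after sowing (seed depth ~1.5 cm, sterilized diluvial soil). Greenhouse, 25–30° C. Effect graded at three weeks post-spray.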

blackgrass [5] = test: Test Example 5: herbicidal effect by foliage application, plastic box (Table 20, symbol J); type: in vivo, blackgrass (Alopecurus myosuroides); settings: foliage application
In short: as §1

persian speedwell [6] = test: Test Example 5: herbicidal effect by foliage application, plastic box (Table 20, symbol R); type: in vivo, Persian speedwell (Veronica persica); settings: foliage application
In short: as §1

redroot pigweed [7] = test: Test Example 5: herbicidal effect by foliage application, plastic box (Table 20, symbol N); type: in vivo, redroot pigweed (Amaranthus retroflexus); settings: foliage application
In short: as §1

persian speedwell [8] = test: Test Example 4: herbicidal effect by soil treatment (Table 19, symbol R); type: in vivo, Persian speedwell (Veronica persica)
In short: as §4

velvetleaf [9] = test: Test Example 4: herbicidal effect by soil treatment (Table 19, symbol M); type: in vivo, velvetleaf (Abutilon theophrasti)
In short: as §4

windgrass [10] = test: Test Example 5: herbicidal effect by foliage application, plastic box (Table 20, symbol L); type: in vivo, windgrass (Apera spica-venti); settings: foliage application, AAH 320 g/ha, three weeks after application
In short: as §1

Italian ryegrass [11] = test: Test Example 5: herbicidal effect by foliage application, plastic box (Table 20, symbol K); type: in vivo, Italian ryegrass (Lolium multiflorum); settings: foliage application
In short: as §1

green foxtail [12] = test: Test Example 4: herbicidal effect by soil treatment (Table 19, symbol G); type: in vivo, green foxtail (Setaria viridis)
In short: as §4

green foxtail [13] = test: Test Example 5: herbicidal effect by foliage application, plastic box (Table 20, symbol G); type: in vivo, green foxtail (Setaria viridis); settings: foliage application
In short: as §1

chickweed [14] = test: Test Example 4: herbicidal effect by soil treatment (Table 19, symbol P); type: in vivo, common chickweed (Stellaria media)
In short: as §4

chickweed [15] = test: Test Example 5: herbicidal effect by foliage application, plastic box (Table 20, symbol P); type: in vivo, common chickweed (Stellaria media); settings: foliage application
In short: as §1

Japanese bulrush = test: Test Example 1: herbicidal activity, application before weed generation under submerged conditions (Table 16, symbol B); type: in vivo, Japanese bulrush (Schoenoplectus juncoides); settings: 320 g/ha applied herbicide
In short: as §2

southern crabgrass [16] = test: Test Example 4: herbicidal effect by soil treatment (Table 19, symbol F); type: in vivo, southern crabgrass (Digitaria ciliaris)
In short: as §4

wild oat [17] = test: Test Example 4: herbicidal effect by soil treatment (Table 19, symbol I); type: in vivo, wild oat (Avena fatua)
In short: as §4

barnyard grass [18] = test: Test Example 5: herbicidal effect by foliage application, plastic box (Table 20, symbol H); type: in vivo, barnyard grass (Echinochloa crus-galli); settings: foliage application
In short: as §1

lambsquarters [19] = test: Test Example 5: herbicidal effect by foliage application, plastic box (Table 20, symbol O); type: in vivo, lambsquarters (Chenopodium album); settings: foliage application
In short: as §1

velvetleaf [20] = test: Test Example 5: herbicidal effect by foliage application, plastic box (Table 20, symbol M); type: in vivo, velvetleaf (Abutilon theophrasti); settings: foliage application
In short: as §1

blackgrass [21] = test: Test Example 4: herbicidal effect by soil treatment (Table 19, symbol J); type: in vivo, blackgrass (Alopecurus myosuroides)
In short: as §4

lambsquarters [22] = test: Test Example 4: herbicidal effect by soil treatment (Table 19, symbol O); type: in vivo, lambsquarters (Chenopodium album)
In short: as §4

barnyard grass [23] = test: Test Example 4: herbicidal effect by soil treatment (Table 19, symbol H); type: in vivo, barnyard grass (Echinochloa crus-galli)
In short: as §4

late watergrass = test: Test Example 1: herbicidal activity, application before weed generation under submerged conditions (Table 16, symbol A); type: in vivo, late watergrass (Echinochloa oryzicola); settings: 320 g/ha applied herbicide
In short: as §2

redroot pigweed [24] = test: Test Example 4: herbicidal effect by soil treatment (Table 19, symbol N); type: in vivo, redroot pigweed (Amaranthus retroflexus)
In short: as §4

windgrass [25] = test: Test Example 4: herbicidal effect by soil treatment (Table 19, symbol L); type: in vivo, windgrass (Apera spica-venti)
In short: as §4

rice flat sedge = test: Test Example 3: herbicidal effect by foliage application, Wagner pot (Table 18, symbol E); type: in vivo, rice flat sedge (Cyperus iria); settings: amount of applied herbicide 320 g/ha
In short: as §3

[26] = AAH 320 g/ha, three weeks after application
[27] = 320 g/ha, evaluated three weeks after application
[28] = amount of applied herbicide 320 g/ha

CC(=O)COc1ccc(-c2sc3ccccc3c2-c2c(O)c(C)nn(C)c2=O)cc1 [1-143]
F: southern crabgrass, herbicidal effect (southern crabgrass [1]; [26]): 3 (Herbicidal rate of 40% or more and less than 70%)
Herbicidal effect on C: oval-leafed pondweed (grade 0-5) (oval-leafed pondweed): 0 (Herbicidal rate of 5% or less (almost no effect))
herbicidal effect on H (barnyard grass), rating 0-5 (barnyard grass [2]; 320 g/ha): 5 (Herbicidal rate of 90% or more (almost completely withered))
I: wild oat, herbicidal effect (wild oat [3]; [26]): 0 (Herbicidal rate of 5% or less (almost no effect))
herbicidal effect on D (Chinese sprangletop), rating 0-5 (Chinese sprangletop; 320 g/ha): 0 (Herbicidal rate of 5% or less (almost no effect))
K: Italian ryegrass, herbicidal effect rating (Italian ryegrass [4]; AAH 320 g/ha): 0 (Herbicidal rate of 5% or less (almost no effect))
J: blackgrass, herbicidal effect (blackgrass [5]; [26]): 0 (Herbicidal rate of 5% or less (almost no effect))
R: persian speedwell, herbicidal effect (persian speedwell [6]; [26]): 5 (Herbicidal rate of 90% or more (almost completely withered))
N: redroot pigweed, herbicidal effect (redroot pigweed [7]; [26]): 4 (Herbicidal rate of 70% or more and less than 90%)
R: persian speedwell, herbicidal effect rating (persian speedwell [8]; AAH 320 g/ha): 3 (Herbicidal rate of 40% or more and less than 70%)
M: velvetleaf, herbicidal effect rating (velvetleaf [9]; AAH 320 g/ha): 4 (Herbicidal rate of 70% or more and less than 90%)
L: windgrass, herbicidal effect (windgrass [10]): 4 (Herbicidal rate of 70% or more and less than 90%)
K: Italian ryegrass, herbicidal effect (Italian ryegrass [11]; [26]): 4 (Herbicidal rate of 70% or more and less than 90%)
G: green foxtail, herbicidal effect rating (green foxtail [12]; AAH 320 g/ha): 4 (Herbicidal rate of 70% or more and less than 90%)
G: green foxtail, herbicidal effect (green foxtail [13]; [26]): 5 (Herbicidal rate of 90% or more (almost completely withered))
P: chickweed, herbicidal effect rating (chickweed [14]; AAH 320 g/ha): 0 (Herbicidal rate of 5% or less (almost no effect))
P: chickweed, herbicidal effect (chickweed [15]; [26]): 5 (Herbicidal rate of 90% or more (almost completely withered))
Herbicidal effect on B: Japanese bulrush (grade 0-5) (Japanese bulrush): 0 (Herbicidal rate of 5% or less (almost no effect))
F: southern crabgrass, herbicidal effect rating (southern crabgrass [16]; AAH 320 g/ha): 3 (Herbicidal rate of 40% or more and less than 70%)
I: wild oat, herbicidal effect rating (wild oat [17]; AAH 320 g/ha): 0 (Herbicidal rate of 5% or less (almost no effect))
H: barnyard grass, herbicidal effect (barnyard grass [18]; [26]): 4 (Herbicidal rate of 70% or more and less than 90%)
O: lambsquarters, herbicidal effect (lambsquarters [19]; [26]): 4 (Herbicidal rate of 70% or more and less than 90%)
M: velvetleaf, herbicidal effect (velvetleaf [20]; [26]): 5 (Herbicidal rate of 90% or more (almost completely withered))
J: blackgrass, herbicidal effect rating (blackgrass [21]; AAH 320 g/ha): 0 (Herbicidal rate of 5% or less (almost no effect))
O: lambsquarters, herbicidal effect rating (lambsquarters [22]; AAH 320 g/ha): 5 (Herbicidal rate of 90% or more (almost completely withered))
H: barnyard grass, herbicidal effect rating (barnyard grass [23]; AAH 320 g/ha): 4 (Herbicidal rate of 70% or more and less than 90%)
Herbicidal effect on A: late watergrass (grade 0-5) (late watergrass): 3 (Herbicidal rate of 40% or more and less than 70%)
N: redroot pigweed, herbicidal effect rating (redroot pigweed [24]; AAH 320 g/ha): 4 (Herbicidal rate of 70% or more and less than 90%)
L: windgrass, herbicidal effect rating (windgrass [25]; AAH 320 g/ha): 0 (Herbicidal rate of 5% or less (almost no effect))

Cc1nn(C)c(=O)c(-c2c(-c3ccc(C(C)(C)C)cc3)sc3ccc(F)cc23)c1O [2-208]
herbicidal effect on F: southern crabgrass (criteria 0-5) (southern crabgrass [1]; [27]): 3 (Herbicidal rate of 40% or more and less than 70%)
Herbicidal effect on C: oval-leafed pondweed (grade 0-5) (oval-leafed pondweed): 0 (Herbicidal rate of 5% or less (almost no effect))
herbicidal effect on H: barnyard grass (barnyard grass [2]; [28]): 5 (Herbicidal rate of 90% or more (almost completely withered))
herbicidal effect on I: wild oat (criteria 0-5) (wild oat [3]; [27]): 0 (Herbicidal rate of 5% or less (almost no effect))
herbicidal effect on D: Chinese sprangletop (Chinese sprangletop; [28]): 5 (Herbicidal rate of 90% or more (almost completely withered))
K: Italian ryegrass, herbicidal effect rating (Italian ryegrass [4]; [28]): 0 (Herbicidal rate of 5% or less (almost no effect))
herbicidal effect on J: blackgrass (criteria 0-5) (blackgrass [5]; [27]): 0 (Herbicidal rate of 5% or less (almost no effect))
herbicidal effect on R: persian speedwell (criteria 0-5) (persian speedwell [6]; [27]): 5 (Herbicidal rate of 90% or more (almost completely withered))
herbicidal effect on N: redroot pigweed (criteria 0-5) (redroot pigweed [7]; [27]): 3 (Herbicidal rate of 40% or more and less than 70%)
R: persian speedwell, herbicidal effect rating (persian speedwell [8]; [28]): 0 (Herbicidal rate of 5% or less (almost no effect))
M: velvetleaf, herbicidal effect rating (velvetleaf [9]; [28]): 1 (Herbicidal rate of 5% or more and less than 20%)
herbicidal effect on K: Italian ryegrass (criteria 0-5) (Italian ryegrass [11]; [27]): 0 (Herbicidal rate of 5% or less (almost no effect))
G: green foxtail, herbicidal effect rating (green foxtail [12]; [28]): 0 (Herbicidal rate of 5% or less (almost no effect))
herbicidal effect on G: green foxtail (criteria 0-5) (green foxtail [13]; [27]): 2 (Herbicidal rate of 20% or more and less than 40%)
P: chickweed, herbicidal effect rating (chickweed [14]; [28]): 0 (Herbicidal rate of 5% or less (almost no effect))
herbicidal effect on P: chickweed (criteria 0-5) (chickweed [15]; [27]): 5 (Herbicidal rate of 90% or more (almost completely withered))
Herbicidal effect on B: Japanese bulrush (grade 0-5) (Japanese bulrush): 2 (Herbicidal rate of 20% or more and less than 40%)
F: southern crabgrass, herbicidal effect rating (southern crabgrass [16]; [28]): 3 (Herbicidal rate of 40% or more and less than 70%)
I: wild oat, herbicidal effect rating (wild oat [17]; [28]): 0 (Herbicidal rate of 5% or less (almost no effect))
herbicidal effect on E: rice flat sedge (rice flat sedge): 5 (Herbicidal rate of 90% or more (almost completely withered))
herbicidal effect on H: barnyard grass (criteria 0-5) (barnyard grass [18]; [27]): 5 (Herbicidal rate of 90% or more (almost completely withered))
herbicidal effect on O: lambsquarters (criteria 0-5) (lambsquarters [19]; [27]): 0 (Herbicidal rate of 5% or less (almost no effect))
herbicidal effect on M: velvetleaf (criteria 0-5) (velvetleaf [20]; [27]): 2 (Herbicidal rate of 20% or more and less than 40%)
J: blackgrass, herbicidal effect rating (blackgrass [21]; [28]): 0 (Herbicidal rate of 5% or less (almost no effect))
O: lambsquarters, herbicidal effect rating (lambsquarters [22]; [28]): 2 (Herbicidal rate of 20% or more and less than 40%)
H: barnyard grass, herbicidal effect rating (barnyard grass [23]; [28]): 0 (Herbicidal rate of 5% or less (almost no effect))
Herbicidal effect on A: late watergrass (grade 0-5) (late watergrass): 0 (Herbicidal rate of 5% or less (almost no effect))
N: redroot pigweed, herbicidal effect rating (redroot pigweed [24]; [28]): 0 (Herbicidal rate of 5% or less (almost no effect))
L: windgrass, herbicidal effect rating (windgrass [25]; [28]): 0 (Herbicidal rate of 5% or less (almost no effect))

— patent US20230085307A1, “PYRIDAZINONE COMPOUND AND HERBICIDE” (NISSAN CHEMICAL CORPORATION, priority 2019, published 2023)
